Source: US20260199293A1, “2-Arylbenzimidazole Compounds for the Treatment of Hemoglobinopathies” (TRANQUIS THERAPEUTICS, INC., priority 2022, published 2026)

What was measured:
[1] = test system: human primary erythroid progenitor CD34+ cells; experiment: Effects on human primary erythroid progenitor CD34+ cells (F cells by flow cytometry, globin mRNA by qRT-PCR), Example 7; assay type: cell-based; conditions: for percentage of HbF-positive cells (F cells): flow cytometry
Description: The effects of the compounds and formulations described in Sections 3.2 and 3.3 hereinabove on human primary erythroid progenitor CD34^+ cells are studies using methods adapted from Sun et al. Sun et al., Br J Haematol. 197:97-109 (2022), the disclosure of which is herein incorporated by reference in its entirety. HbF-positive cells (F cells) are quantified by flow cytometry after compound exposure. Globin gene mRNA abundance is determined by quantitative real-time polymerase chain reaction (qRT-PCR).

SCD mice = experiment: Effects on SCD mice (globin gene expression by qRT-PCR, F cells in peripheral blood by flow cytometry), Example 8; assay type: in vivo
Description: The effects of the compounds and formulations described in Sections 3.2 and 3.3 on SCD mice are studied using methods adapted from Sun et al., Br J Haematol. 197:97-109 (2022), the disclosure of which is herein incorporated by reference in its entirety. Relative mRNA abundance of PGC-1α and globin gene expression are determined by quantitative real-time polymerase chain reaction (qRT-PC R). HbF-positive cells (F cells) in peripheral blood of treated SCD mice are quantified by flow cytometry

Solubility (statement) = assay type: physicochemical
Description: Oral administration is preferred to parenteral administration for chronic life-long treatment, as is required for treating hemoglobinopathies such as sickle cell disease. […] There is a need, therefore, for agents that increase PGC-1α expression that can be administered orally for treatment of hemoglobinopathies such as SCD.

[2] = test system: human primary erythroid progenitor CD34+ cells; conditions: cited from earlier work
sickle mice = conditions: cited from earlier work
[3] = test system: Ppargc1α (PGC-1α) expression; conditions: cited from earlier work
[4] = test system: murine models of neurodegenerative diseases; conditions: cited from earlier work
older mice = conditions: cited from earlier work
[5] = test system: acute systemic immune activation, including cytokine release syndrome (CRS); conditions: cited from earlier work

| solubility (Solubility (statement)) | Structure (SMILES) | fetal γ-globin mRNA protein expression [1] | percentage of HbF-positive cells (F cells) [1] | expression of the murine embryonic βh1-globin gene (SCD mice) | human γ-globin gene expression (SCD mice) | cell proliferation and differentiation [2] | fetal γ-globin mRNA and protein expression [2] | percentage of HbF-positive cell (F cells) [2] | expression of the murine embryonic βh1-globin gene (sickle mice) | γ-globin expression and fetal hemoglobin (HbF) production (sickle mice) | Ppargc1α (PGC-1α) expression [3] | disease severity [4] | myeloid-mediated inflammation [4] | behavioral dysfunction (older mice) | inflammatory cytokine production in microglia (older mice) | metabolic dysfunction in microglia (older mice) | systemic inflammation (older mice) | acute systemic immune activation, including cytokine release syndrome (CRS) [5] |
| --- | --- | --- | --- | --- | --- | --- | --- | --- | --- | --- | --- | --- | --- | --- | --- | --- | --- | --- |
|  | CC(C)(C)c1ccc(-c2nc3cc(O)ccc3[nH]2)cc1 [Compound 26, 2-(4-tert-Butylphenyl)-1H-benzo[d]imidazol-5-ol] | induce | induce | induce | induce |  |  |  |  |  |  |  |  |  |  |  |  |  |
| poorly soluble | CC(C)(C)c1ccc(-c2nc3ccccc3[nH]2)cc1 [TQS-168, 2-(4-tert-butylphenyl)-1H-benzimidazole] | induce | induce | induce | induce | without significantly affecting | induce | induce | robust expression | induce | activator | reduce | suppress | alleviate | inhibit | suppress | suppress | suppress |
